# According to publication PMC4926143 (Toxins, 2016):
# “Also recorded” adds a separate entry of the source. Where two headings read alike, the source gives them in different places.
# Experiments:
# aflatoxin production = conditions: cited from earlier work
# [1] = molecular target: T1, bovine heart mitochondrial complex II (Bos taurus, UniProt P31039+P35720+Q3T189+Q95123); test: MitoCheck Complex II Activity Assay (succinate dehydrogenase activity); assay type: biochemical; conditions: bovine heart mitochondria
# T1 construct: bovine heart mitochondrial complex II; purchased Cayman Chemical; host or cells: bovine heart mitochondria (native tissue preparation supplied in the kit)
# [2] = test system: Aspergillus flavus IMF 47798; assay type: cell-based
# [3] = test system: Aspergillus flavus IMF 47798; assay type: cell-based; remark: listed apart in the source
# aflR and pksA mRNA = test: RT-qPCR of aflR and pksA mRNA levels in A. flavus; assay type: cell-based, Aspergillus flavus; conditions: 0.05 mM, normalized to β-tubulin mRNA
# Description: To test the effects of three octyl esters on the mRNA levels of aflR and pksA, A. flavus was cultured with octyl syringate (8), octyl paraben (12), or octyl gallate (14) at the concentrations of 0.05 mM. Subsequently, aflR and pksA mRNA levels were examined by quantitative PCR.
# The lyophilized mycelia were ground under liquid nitrogen using a mortar and pestle. Total RNA was extracted with TRIzol reagent (Thermo Fisher Scientific, Waltham, MA, USA) and purified with the PureLink RNA Mini Kit (Thermo Fisher Scientific), according to manufacturer’s protocol. The cDNA was prepared with the ReverTra Ace qPCR RT Master Mix (TOYOBO, Osaka, Japan), according to manufacturer’s protocol. The cDNA derived from 0.05 μg of total RNA was used as a qPCR template. qPCR was carried out using FastStart Universal SYBR Green Master (Rox) (Roche, Basel, Switzerland) in a final volume of 25 μL for each reaction and an ABI 7300 Real-Time PCR System (Thermo Fisher Scientific). Two-step PCR conditions were as follows: after an initial incubation at 95 °C for 10 min, 40 cycles of 95 °C for 15 s and 60 °C for 1 min were performed. The amount of aflR and pksA mRNA were normalized to the amount of β-tubulin mRNA (control gene) in each sample. PCR primers used for each gene were as follows: β-tubulin 5′-[…]-3′ and 5′-[…]-3′; AflR 5′-[…]-3′ and 5′-[…]-3′; pksA 5′-[…]-3′ and 5′-[…]-3′.
# A. flavus = conditions: cited from earlier work
# A. flavus ATCC 9170 = test system: A. flavus ATCC 9170; set-up: method as in PMID 19232493; conditions: cited from earlier work
# [4] = read-out: IC50, mitochondrial complex II
# T1 sequence (P31039 44-665): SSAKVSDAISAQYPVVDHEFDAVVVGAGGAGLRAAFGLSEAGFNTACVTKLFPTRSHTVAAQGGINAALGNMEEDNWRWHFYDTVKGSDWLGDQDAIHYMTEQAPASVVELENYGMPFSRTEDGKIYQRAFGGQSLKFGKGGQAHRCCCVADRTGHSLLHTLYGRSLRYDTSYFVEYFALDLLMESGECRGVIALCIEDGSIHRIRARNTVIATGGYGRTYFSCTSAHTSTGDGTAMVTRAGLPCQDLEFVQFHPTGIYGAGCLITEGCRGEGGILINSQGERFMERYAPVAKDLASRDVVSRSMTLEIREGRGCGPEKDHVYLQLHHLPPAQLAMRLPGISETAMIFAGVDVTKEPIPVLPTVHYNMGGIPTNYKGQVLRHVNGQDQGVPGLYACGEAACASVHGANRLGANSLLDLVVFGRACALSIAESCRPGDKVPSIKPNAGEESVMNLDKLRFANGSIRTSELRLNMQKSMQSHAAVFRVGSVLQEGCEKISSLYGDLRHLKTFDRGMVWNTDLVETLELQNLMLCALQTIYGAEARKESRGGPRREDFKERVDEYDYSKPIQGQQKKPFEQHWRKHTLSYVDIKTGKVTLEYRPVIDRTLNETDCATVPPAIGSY
# T1 sequence (Q3T189 29-280): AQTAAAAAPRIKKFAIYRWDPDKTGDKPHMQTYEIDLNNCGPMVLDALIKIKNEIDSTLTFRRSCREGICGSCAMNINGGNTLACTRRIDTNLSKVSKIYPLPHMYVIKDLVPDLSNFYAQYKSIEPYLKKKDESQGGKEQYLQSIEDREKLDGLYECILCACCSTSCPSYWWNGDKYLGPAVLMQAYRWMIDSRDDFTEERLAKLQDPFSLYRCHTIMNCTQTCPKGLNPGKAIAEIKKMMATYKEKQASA
# T1 sequence (P35720 30-169): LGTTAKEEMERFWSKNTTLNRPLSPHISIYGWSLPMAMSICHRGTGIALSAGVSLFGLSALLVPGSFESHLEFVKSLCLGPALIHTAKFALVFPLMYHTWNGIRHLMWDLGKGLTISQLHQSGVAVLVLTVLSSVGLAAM
# T1 sequence (Q95123 56-158): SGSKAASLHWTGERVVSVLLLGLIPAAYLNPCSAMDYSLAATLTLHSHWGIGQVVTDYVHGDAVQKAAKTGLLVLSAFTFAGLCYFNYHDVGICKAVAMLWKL
smiles,measurement,setting,value
COc1[nH]c(=O)c(C(=O)[C@@H](C)C[C@H](C)[C@@H](Cl)CCl)c(O)c1OC [atpenin A5],inhibition of aflatoxin production by complex II inhibitors,aflatoxin production,inhibited aflatoxin production with selectivity
O=C(Nc1ccccc1-c1ccc(Cl)cc1)c1cccnc1Cl [boscalid],IC50,[1]; [4],19 µM
same,inhibition of aflatoxin production by complex II inhibitors,aflatoxin production,inhibited aflatoxin production with selectivity
same,IC50,aflatoxin production; read-out: IC50 of aflatoxin production inhibition,< 0.01 µM
"CCOC(=O)c1cc(OC)c(O)c(OC)c1 [compound 2, Ethyl syringate]",inhibition of aflatoxin production,[2],did not inhibit aflatoxin production
same,IC50,"[1]; highest concentration 20 mM, read-out: IC50, mitochondrial complex II (symbol)",> 20000 µM
"CCCOC(=O)c1cc(OC)c(O)c(OC)c1 [compound 3, propyl syringate]",inhibition of aflatoxin production,[2],did not inhibit aflatoxin production
same,IC50,[1]; [4],> 20000 µM
"CCCCOC(=O)c1cc(OC)c(O)c(OC)c1 [compound 4, butyl syringate]",inhibition of aflatoxin production,[2],strong inhibitory activity
same,IC50,[1]; [4],9700 µM
"CCCCCOC(=O)c1cc(OC)c(O)c(OC)c1 [compound 5, pentyl syringate]",inhibition of aflatoxin production,[2],inhibited aflatoxin production very strongly
same,IC50,[1]; [4],2800 µM
"CCCCCCOC(=O)c1cc(OC)c(O)c(OC)c1 [compound 6, hexyl syringate]",inhibition of aflatoxin production,[2],inhibited aflatoxin production very strongly
same,IC50,[1]; [4],1100 µM
"CCCCCCCOC(=O)c1cc(OC)c(O)c(OC)c1 [compound 7, heptyl syringate]",inhibition of aflatoxin production,[2],inhibited aflatoxin production very strongly
same,IC50,[1]; [4],1300 µM
"CCCCCCCCOC(=O)c1cc(OC)c(O)c(OC)c1 [compound 8, Octyl syringate]",inhibition of aflatoxin production,[2],inhibited aflatoxin production very strongly
same,fungal mycelial weight after five and six days of cultivation,[3],without changing
same,IC50,[1]; [4],340 µM
same,aflR mRNA level,aflR and pksA mRNA,None of the three octyl esters affected
same,pksA mRNA level,aflR and pksA mRNA,None of the three octyl esters affected
"CCOC(=O)c1ccc(O)cc1 [compound 9, ethyl paraben]",aflatoxin production inhibitory activity (comparison in words),[2],weak
"CCCOC(=O)c1ccc(O)cc1 [compound 10, Propyl paraben]",aflatoxin production inhibitory activity (comparison in words),[2],more strongly than propyl syringate (3) and propyl gallate (15); also recorded: much weaker than that of heptyl paraben (11) and octyl paraben (12)
same,IC50,[1]; [4],> 20000 µM
same,inhibition of aflatoxin production on a solid culture,A. flavus,inhibit aflatoxin production
"CCCCCCCOC(=O)c1ccc(O)cc1 [compound 11, heptyl paraben]",aflatoxin production inhibitory activity after five and six days of cultivation,[2],maintained
same,inhibition of aflatoxin production,[2],strong
same,effect on fungal growth,[3],did not affect fungal growth
"CCCCCCCCOC(=O)c1ccc(O)cc1 [compound 12, octyl paraben]",aflatoxin production inhibitory activity (comparison in words),[2],strong
same,effect on fungal growth,[3],did not affect fungal growth
same,IC50,[1]; [4],160 µM
same,aflR mRNA level,aflR and pksA mRNA,None of the three octyl esters affected
same,pksA mRNA level,aflR and pksA mRNA,None of the three octyl esters affected
"CCCCCCCCOC(=O)c1cc(O)c(O)c(O)c1 [compound 14, Octyl gallate]",aflatoxin production inhibitory activity after five and six days of cultivation,[2],maintained
same,inhibition of aflatoxin production,[2],as strongly as octyl syringate (8) and octyl paraben (12); also recorded: strongly inhibited
same,effect on fungal growth,[3],did not affect fungal growth
same,effect on mycelial weight,[3],reduced the mycelial weight
same,IC50,[1]; [4],290 µM
same,aflR mRNA level,aflR and pksA mRNA,None of the three octyl esters affected
same,pksA mRNA level,aflR and pksA mRNA,None of the three octyl esters affected
same,minimum inhibitory concentration (MIC),A. flavus ATCC 9170,63 µM
Cc1ccccc1C(=O)Nc1cccc(OC(C)C)c1 [mepronil],inhibition of aflatoxin production by complex II inhibitors,aflatoxin production,inhibited aflatoxin production with selectivity
Cc1cc(O)c2c(c1)O[C@@]1(C)CC[C@H]3C(C)(C)CCC[C@]34CO[C@@H]2[C@H]41 [siccanin],inhibition of aflatoxin production by complex II inhibitors,aflatoxin production,inhibited aflatoxin production with selectivity
